Results as given in patent US20260209175A1, “PHARMACEUTICALLY ACCEPTABLE 5-METHOXY-N,N-DIMETHYL[…] AND COMPOSITIONS THEREOF” (priority 2022, published 2026).
Structures can show the parent of a compound that is named as a salt.

Columns and labels:
[1] = Polymorphism screen of hydrochloride salt (thermal cycling, evaporations), XRPD; type: physicochemical; settings: for XRPD Result: lyophilised hydrochloride salt, thermally cycled between ambient and 40° C., three days
Protocol: To render the material amorphous and thus remove seeds of the pattern 1 the material was rendered amorphous. To 2.605 g of the hydrochloride lot RPI-014-022 dioxane (55 ml) and water (5 ml) was added. The mixture was agitated gently and warmed to aid dissolution.
Twenty five of the lyophilised samples were treated with solvent and thermally cycled between ambient and 40° C. with four hours spent under each condition. After three days and solids were isolated by centrifuge filtration and analysed by XRPD.
Twelve samples of the lyophilised material were treated with a minimal volume (ca 0.5 ml) of warm solvent, syringe filtered through a 0.22 µm filter and added to a clean HPLC vial and allowed to evaporate at RT. The solvents used and XRPD results following evaporation are detailed in the Table below: […]

[2] = Dynamic Vapor Sorption (DVS) analysis of salts, with XRPD of the post-DVS sample; type: physicochemical; settings: for deliquescence during DVS: high RH; for sorption/desorption behaviour (reversibility, hysteresis): DVS isotherm
Protocol: XRPD diffractograms were acquired using Bruker D2 Phaser diffractometer equipped with LYNXEYE detector. Samples were prepared using a zero-background sample holder. The samples were scanned from 5 to 32° (2θ) using a step size of 0.02° and a time per step of 0.13 second whilst spinning the sample. Diffractograms were plotted using the EVA program from Bruker.
DVS analyses were performed on TA Instrument DVS Q5000. Samples were added to a pre-tared metallised quartz crucible and run at 25° C. from 40% RH to 90% RH, down to zero and back to 40%. This cycle was repeated in increments of 10% RH.

[3] = Thermo-Gravimetric Analysis (TGA), thermal stability; type: physicochemical; settings: 10° C./min ramp; for thermally stable up to (TGA): nitrogen
Protocol: TGA thermograms were obtained with a TA Instrument Discovery 550 in Al pans. The heating rate used was 10° C./min linear ramp from 25 to 400° C. with a nitrogen purging at a rate of 60 ml/min. TGA thermograms were analysed using TRIOS software.

[4] = Solubility assessments in four different media; type: physicochemical; settings: 250 mg per vial; for Observation: 1 ml media at 37° C.
Protocol: Solubility assessments of 5-MeO-DMT oxalate, hydrobromide fumarate and benzoate were performed in four different media: […]

[5] = type: physicochemical; settings: 40° C./75% RH, three days
Protocol: Salt screening studies with 24 selected counter-ions were performed to determine if 5-MeO-DMT free base is amenable to salt formation. […] Salts were examined by XRPD, TGA, DSC, 1H NMR and some by DVS analyses. Short term physical stability was examined by storage of salts at 40° C./75% RH for three days.
Physical stability stress tests were conducted on generated crystalline salts at controlled temperature and relative humidity. The powder samples were stored at 40° C./75% RH for three days. After this time samples were analysed by XRPD to see whether the physical state of salts changed during the storage.

COc1ccc2[nH]cc(CCN(C)C)c2c1.Cl [DJP2202-007-05]
XRPD Result ([1]; 2-Methyltetrahydrofuran): Pattern 1

COc1ccc2[nH]cc(CCN(C)C)c2c1 [Ketoglutarate salt, 5-MeO-DMT ketoglutarate]
water uptake at 40% RH ([2]; first sorption isotherm, 40% RH): 0.13 % w/w
moisture absorption at 80% RH ([2]; first sorption isotherm): 2.55 % w/w
water uptake at 90% RH ([2]; first sorption isotherm, 90% RH): 28.14 % w/w
deliquescence during DVS [2]: deliquesce at high RH

COc1ccc2[nH]cc(CCN(C)C)c2c1.Cl [DJP2202-007-10]
XRPD Result ([1]; Chlorobenzene): Pattern 1

COc1ccc2[nH]cc(CCN(C)C)c2c1.Cl [DJP2202-007-20]
XRPD Result ([1]; iso-Propyl acetate (experiment 007-20)): Pattern 1

COc1ccc2[nH]cc(CCN(C)C)c2c1.Cl [DJP2202-007-02]
XRPD Result ([1]; 1-Propanol): Pattern 1

COc1ccc2[nH]cc(CCN(C)C)c2c1.O=C(O)c1ccccc1 [benzoate salt pattern 4, 5-MeO-DMT benzoate]
onset of decomposition / mass loss (TGA) [3]: ~ 190 °C
thermally stable up to (TGA) [3]: ~ 190 °C

COc1ccc2[nH]cc(CCN(C)C)c2c1.Cl [DJP2202-007-06]
XRPD Result ([1]; 2-Propanol): Pattern 1

COc1ccc2[nH]cc(CCN(C)C)c2c1.Cl [DJP2202-007-21]
XRPD Result ([1]; 2-Me-1-PrOH): Pattern 1

COc1ccc2[nH]cc(CCN(C)C)c2c1.Cl [DJP2202-007-16]
XRPD Result ([1]; Methylethyl ketone): Pattern 2

COc1ccc2[nH]cc(CCN(C)C)c2c1 [Fumarate salt, 5-MeO-DMT fumarate]
thermally stable up to (TGA) [3]: 150 °C
pH after addition of 1 ml media at 37° C. ([4]; SNF): 5.14
Observation ([4]; SNF): Clear solution
pH after addition of 1 ml media at 37° C. ([4]; pH 1.2 buffer): 5.24
Observation ([4]; pH 1.2 buffer): Clear solution
pH after addition of 1 ml media at 37° C. ([4]; pH 4.5 buffer): 5.31
Observation ([4]; pH 4.5 buffer): Clear solution
pH after addition of 1 ml media at 37° C. ([4]; pH 6.8 buffer): 5.79
Observation ([4]; pH 6.8 buffer): Clear solution
mass difference between 40% RH and 0% RH ([2]; salt produced during scale-up): ~ 2.84%
solid form after DVS (XRPD post DVS) ([2]; salt produced during scale-up): a change in crystalline form occurred

COc1ccc2[nH]cc(CCN(C)C)c2c1.Cl [DJP2202-007-15]
XRPD Result ([1]; Propyl acetate): Pattern 1

COc1ccc2[nH]cc(CCN(C)C)c2c1.Cl [DJP2202-007-09]
XRPD Result ([1]; Anisole): Pattern 1

COc1ccc2[nH]cc(CCN(C)C)c2c1.Cl [DJP2202-007-13]
XRPD Result ([1]; Isopropyl acetate (experiment 007-13)): Pattern 1

COc1ccc2[nH]cc(CCN(C)C)c2c1 [Benzenesulfonate salt, 5-MeO-DMT benzenesulfonate]
thermally stable up to (TGA) [3]: 250 °C
total water (moisture) uptake between 0% RH and 90% RH ([2]; 25° C): approximately 21 % w/w
sorption/desorption behaviour (reversibility, hysteresis) ([2]; 25° C): hysteresis between 40-80% RH
water uptake up to 60% RH ([2]; first sorption isotherm): 1.2 % w/w
moisture absorption at 70% RH ([2]; first sorption isotherm): 7 % w/w
moisture absorption at 80% RH ([2]; first sorption isotherm): 14 % w/w
deliquescence during DVS [2]: begins to deliquesce

COc1ccc2[nH]cc(CCN(C)C)c2c1.O=C(O)c1ccccc1 [benzoate salt pattern 3, 5-MeO-DMT benzoate]
onset of decomposition / mass loss (TGA) [3]: approximately 190 °C

COc1ccc2[nH]cc(CCN(C)C)c2c1.Cl [DJP2202-007-07]
XRPD Result ([1]; Acetone): Pattern 1

COc1ccc2[nH]cc(CCN(C)C)c2c1.Cl [DJP2202-007-11]
XRPD Result ([1]; Ethanol): Pattern 1

COc1ccc2[nH]cc(CCN(C)C)c2c1 [Phosphate salt, 5-MeO-DMT phosphate]
crystalline form by XRPD after storage [5]: did not undergo any transformation
total reversible mass change between 0-90% RH ([2]; Example 3 Pattern 1 batches, listed as 5-MeO-DMT Phosphate Pattern 1): 0.3 wt. %

COc1ccc2[nH]cc(CCN(C)C)c2c1.Cl [DJP2202-007-03]
XRPD Result ([1]; 2-Butanol): Pattern 1

COc1ccc2[nH]cc(CCN(C)C)c2c1 [Tosylate salt, 5-MeO-DMT tosylate]
crystalline form by XRPD after storage [5]: identical XRPD pattern
total water (moisture) uptake between 0% RH and 90% RH ([2]; 25° C): approximately 1.9 % w/w
sorption/desorption behaviour (reversibility, hysteresis) ([2]; 25° C): reversibly without hysteresis
hygroscopicity classification ([2]; salt screen / scale-up batches, DVS at 25° C): slightly hygroscopic (Pharmaceuticals that pick up between 0.2% and 2.0% moisture at 80% RH are considered slightly hygroscopic)
solid form after DVS (XRPD post DVS) ([2]; salt screen batches): did not undergo any solid-state changes

COc1ccc2[nH]cc(CCN(C)C)c2c1 [free base, 5-methoxy-N,N-dimethyltryptamine]
thermally stable up to (TGA) [3]: 150 °C

COc1ccc2[nH]cc(CCN(C)C)c2c1.Cl [hydrochloride salt, 5-MeO-DMT hydrochloride]
XRPD Results ([1]; evaporation at RT of lyophilised material from 1-PrOH, DJP2202-011-02): Pattern 1
XRPD Results ([1]; evaporation at RT of lyophilised material from EtOH, DJP2202-011-05): Pattern 1
XRPD Results ([1]; evaporation at RT of lyophilised material from IPA, DJP2202-011-06): Pattern 1
XRPD Results ([1]; evaporation at RT of lyophilised material from MEK, DJP2202-011-11): Pattern 1
XRPD Results ([1]; evaporation at RT of lyophilised material from MeCN, DJP2202-011-12): Oil
thermally stable up to (TGA) [3]: ~ 235 °C

COc1ccc2[nH]cc(CCN(C)C)c2c1.Cl [DJP2202-007-22]
XRPD Result ([1]; Tetrahydrofuran): Pattern 1

COc1ccc2[nH]cc(CCN(C)C)c2c1.Cl [Hydrochloride pattern 3, 5-MeO-DMT hydrochloride]
onset of decomposition / mass loss (TGA) ([3]; hydrochloride): around 260 °C

COc1ccc2[nH]cc(CCN(C)C)c2c1.O=C(O)CC(O)C(=O)O [Malate salt, 5-MeO-DMT malate]
thermally stable up to (TGA) [3]: around 170 °C
crystalline form by XRPD after storage [5]: conversion to a “gum” material

COc1ccc2[nH]cc(CCN(C)C)c2c1 [glycolate salt, 5-MeO-DMT glycolate]
thermally stable up to (TGA) [3]: around 155 °C
total moisture uptake between 0% RH and 90% RH, 1st cycle ([2]; 25° C, 1st cycle): approximately 62 % w/w
total moisture uptake between 0% RH and 90% RH, 2nd cycle ([2]; 25° C, 2nd cycle): ~59 % w/w
sorption/desorption behaviour (reversibility, hysteresis) ([2]; 25° C): hysteresis between 40-80% RH
water uptake up to 60% RH ([2]; first sorption isotherm): 2.3 % w/w
moisture absorption at 70% RH ([2]; first sorption isotherm): 11 % w/w
moisture absorption at 80% RH ([2]; first sorption isotherm): 33 % w/w
deliquescence during DVS [2]: begins to deliquesce

COc1ccc2[nH]cc(CCN(C)C)c2c1 [Saccharinate salt, 5-MeO-DMT saccharinate]
thermally stable up to (TGA) [3]: 200 °C

COc1ccc2[nH]cc(CCN(C)C)c2c1.Cl [DJP2202-007-12]
XRPD Result ([1]; Ethyl acetate): Pattern 1

COc1ccc2[nH]cc(CCN(C)C)c2c1.O=C(O)c1ccccc1 [benzoate salt pattern 2, 5-MeO-DMT benzoate]
thermally stable up to (TGA) [3]: ~ 170 °C

COc1ccc2[nH]cc(CCN(C)C)c2c1.Cl [DJP2202-007-08]
XRPD Result ([1]; Acetonitrile): Pattern 1

COc1ccc2[nH]cc(CCN(C)C)c2c1.Cl [Hydrochloride pattern 2, 5-MeO-DMT hydrochloride]
onset of decomposition / mass loss (TGA) ([3]; hydrochloride): around 256 °C
